Reference: patent US20230020329A1, “Annelated 9-hydroxy-1,8-dioxo-1,3,4,8-tetrahydro-2H-pyrido[1,2-a]pyrazine-7-carboxamides as HIV integrase inhibitors, methods of preparation and application thereof” (priority 2019, published 2023)
pEC50: −log10 of the molar value. Values after ≈ are worked out from the molar mass of the structure shown. Like-named read-outs stand apart in the source and are kept apart here.

How the values were obtained:
[1] = tested on: HIV-1 (IIIB strain); test: Anti-HIV cytoprotection assay (XTT), HIV-1 IIIB in CEM-SS cells; type: cell-based; conditions: CEM-SS cell line, read-out: Inhibitory activity (EC50) against HIV-1 (IIIB strain)
In short: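 CEM-SS cells infected with a pre-titrated virus dose killing 85–95% of cells by day 6; protection from HIV-induced death read by XTT formazan. Compounds screened in triplicate at 30 and 10 nM, actives retested at 2 nM; AZT six-concentration curve on each plate as positive control.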

[2] = Thermodynamic (shake-flask) solubility; type: physicochemical; conditions: for solubility at 24 h: thermodynamic from solid
Protocol: The test compound of general formula 1 or 2 (2 mg) was weighed into a glass vial. The pION universal buffer (0.5 ml) with pH 7.4 or deionized water was added to appropriate vials. The vials were tightly closed with a lid, placed on a rotating shaker, and incubated for 24 hours to balance the solution and the solid phase at the saturation point. Each resulting solution (200 μl) was taken (in duplicate) from the vials, placed in a 96-well MultiScreen Solubility Filter Plate (Millipore), and filtered using vacuum ([…]) into a polypropylene plate with a U-shaped bottom. If necessary, the filtrates were diluted with an appropriate buffer (water). Then, 120 μl of the filtarate (or a diluted filtrate) was transferred to a 96-well plate with a UV-transparent bottom and 60 μl/well of acetonitrile and 20 μl/well of DMSO were added and thoroughly mixed with a multichannel pipette (acetonitrile and DMSO were added to obtain a required composition of calibration standards, as described below). The optical density of the resulting solutions was measured on a multifunction Infinite 200 PRO plate reader in the wavelength range from 240 nm to 400 nm in steps of 10 nm. The value of ODλ for solutions was assessed at a wavelength chosen for plotting a calibration curve.
The concentration of a substance in the solution after the solubility test was evaluated using a calibration curve. A stock solution in DMSO with a concentration of 2 mg/ml was prepared from a separate sample. […] The range of final concentrations of the calibration curve was 0.2; 0.1; 0.05; 0.025; 0.0125; 0.00625, and 0 mg/ml. Calibration solutions were prepared in a 96-well UV plate as follows: 20 μl of a 10-fold stock solution in DMSO, 60 μl of acetonitrile, and 120 μl of the appropriate buffer were added to the well and stirred. The optical density of the resulting solutions was measured on a multifunction Infinite 200 PRO plate reader in the wavelength range from 240 nm to 400 nm with a step of 10 nm. The optimal wavelength typically corresponding to the absorption maximum was chosen, and a linear dependence of OD at a given wavelength on the concentration of the compound was obtained.
The concentration of the compound in the filtrate after the solubility test was calculated according to the formula:
shake-flask solubility=(ODλfiltrate−ODλblank)/(slope×1.67×filtrate dilution)
wherein slope means the slope of the calibration curve; 1.67 is the filtrate acetonitrile+DMSO dilution ratio; filtrate dilution is an additional dilution of the filtrate, if applicable.

[3] = tested on: HIV; conditions: depending on the method of analysis; read-out: Inhibitory activity EC50 (literature); cited from earlier work
[4] = tested on: HIV-1 (NL4.3 strain) carrying the GFP reporter gene (NL4.3-GFP); test: HIV-1 NL4.3-GFP infection of SupT1 cells; type: cell-based; conditions: Human immunodeficiency virus 1, SUP-T1, read-out: Inhibitory activity (EC50) of HIV-1 (NL4.3 strain) carrying the GFP reporter gene
Protocol: 6. Inhibitory Activity of HIV-1 (NL4.3 Strain) Carrying the GFP Reporter Gene (NL4.3-GFP) in the SuPT1 Cell Line.
The evaluation was done by RetroVirox Inc. (San Diego, Calif., USA). SupT1 cells were infected with the HIV NL4.3 strain carrying the green fluorescent protein gene (NL4.3-GFP). The virus sample was produced by transfection of 293T cells with proviral DNA. The sample was frozen 48 hours after transfection and stored until use. To enhance the efficiency of infection, a suspension of SupT1 cells was precipitated from the infectious mixture by centrifugation. Test substances were added to the cells immediately before adding the virus. After 2 hours of incubation, the infectious mixture was replaced with a fresh culture medium containing test samples. The effectiveness of the infection was determined after 45 hours by counting the percentage of fluorescent cells in comparison with uninfected cell cultures. The cytotoxicity of the test compounds was determined in parallel on the same, but not infected, SupT1 cell line using the XTT reagent. Serial tenfold dilutions of the samples (starting from 10 μM when determining antiviral activity or from 100 μM for determining cytotoxicity). As a negative control, 0.1% DMSO was used. The values of EC50 were calculated. The quality of the tests was determined using the following controls: signal-to-noise ratio, integrase inhibitor raltegravir (1 μM), and test reproducibility.

[5] = Human immunodeficiency virus 1, IIIB, CEM-SS
[6] = aqueous buffer, pION universal buffer pH 7.4, 24 h, read-out: Solubility, pH 7.4, value
[7] = deionized water, 24 h, read-out: Solubility, water, value
[8] = deionized water, water, read-out: Solubility in water

Structure (SMILES)	pEC50 [1, 5]	solubility at 24 h [2, 6]	solubility at 24 h [2, 7]	Solubility, water, value ([2]; deionized water, 24 h)	solubility at 24 h [2, 8]	pEC50 [3]	pEC50 [1]	pEC50 [4]
C[C@H]1CO[C@@H]2Cn3cc(C(=O)NCc4ccncc4F)c(=O)c(O)c3C(=O)N12 [Compound 1.1.23, (3S,11aR)-6-hydroxy-3-methyl-N-[(3-fluoropyridin-4-yl)methyl]-5,7-dioxo-2,3,5,7,11,11a-hexahydro[1,3]oxazolo[3,2-a]pyrido[1,2-d]pyrazine-8-carboxamide]	7.52 to 8.00	91 µg/mL (≈ 234 µM)	78 µg/mL (≈ 201 µM)					
Cc1cc2c(cc1CNC(=O)c1cn3c(c(O)c1=O)C(=O)N1[C@@H](C)CO[C@@H]1C3)OCCO2 [Compound 1.1.36, (3S,11aR)-6-hydroxy-3-methyl-N-[(7-methyl-2,3-dihydro-1,4-benzodioxin-6-yl)methyl]-5,7-dioxo-2,3,5,7,11,11a-hexahydro[1,3]oxazolo[3,2-a]pyrido[1,2-d]pyrazine-8-carboxamide]	7.52 to 8.00	70 µg/mL (≈ 159 µM)	56 µg/mL (≈ 127 µM)					
C[C@H]1CO[C@@H]2Cn3cc(C(=O)NCc4nn(C)c(Cl)c4Cl)c(=O)c(O)c3C(=O)N12 [Compound 1.1.7, (3S,11aR)-6-hydroxy-N-[(4,5-dichloro-1-methyl-1H-pyrazol-3-yl)methyl]3-methyl-5,7-dioxo-2,3,5,7,11,11a-hexahydro[1,3]oxazolo[3,2-a]pyrido[1,2-d]pyrazine-8-carboxamide]	9.23	318 µg/mL (≈ 719 µM)	318 µg/mL (≈ 719 µM)					
C[C@H]1CO[C@@H]2Cn3cc(C(=O)NCc4c(F)cncc4F)c(=O)c(O)c3C(=O)N12 [Compound 1.1.24, (3S,11aR)-6-hydroxy-N-[(3,5-difluoropyridin-4-yl)methyl]-3-methyl-5,7-dioxo-2,3,5,7,11,11a-hexahydro[1,3]oxazolo[3,2-a]pyrido[1,2-d]pyrazine-8-carboxamide]	8.58	380 µg/mL (≈ 935 µM)	347 µg/mL (≈ 854 µM)					
C[C@H]1CO[C@@H]2Cn3cc(C(=O)NCc4ccc5nonc5c4)c(=O)c(O)c3C(=O)N12 [Compound 1.1.48, (3S,11aR)-N-(2,1,3-benzoxadiazol-5-ylmethyl)-6-hydroxy-3-methyl-5,7-dioxo-2,3,5,7,11,11a-hexahydro[1,3]oxazolo[3,2-a]pyrido[1,2-d]pyrazine-8-carboxamide]	9.37	3.2 µg/mL (≈ 7.78 µM)		2.85 µg/mL (≈ 6.93 µM)	2.85 µg/mL (≈ 6.93 µM)			
C[C@@H]1CCO[C@H]2Cn3cc(C(=O)NCc4ccc(F)cc4F)c(=O)c(O)c3C(=O)N12 [DTG, Dolutegravir]						8.13 to 8.96		
Cc1cc(CNC(=O)c2cn3c(c(O)c2=O)C(=O)N2[C@@H](C)CO[C@@H]2C3)c2ccccc2n1 [Compound 1.1.51, (3S,11aR)-6-hydroxy-3-methyl-N-(2-methylquinolin-4-ylmethyl)-5,7-dioxo-2,3,5,7,11,11a-hexahydro[1,3]oxazolo[3,2-a]pyrido[1,2-d]pyrazine-8-carboxamide]	8.00 to 8.70	8 µg/mL (≈ 18.4 µM)	31 µg/mL (≈ 71.4 µM)					
C[C@@H]1CCO[C@H]2Cn3cc(C(=O)NCc4ccc(F)nc4F)c(=O)c(O)c3C(=O)N12 [Compound 1.2.1, (4R,12aS)-7-hydroxy-N-[(2,6-difluoropyridin-3-yl)methyl]-4-methyl-6,8-dioxo-3,4,6,8,12,12a-hexahydro-2H-pyrido[1′,2′:4,5]pyrazino[2,1-b][1,3]oxazine-9-carboxamide]	8.29	80 µg/mL (≈ 190 µM)	57 µg/mL (≈ 136 µM)					
C[C@H]1CO[C@@H]2Cn3cc(C(=O)NCc4ccc(F)nc4F)c(=O)c([O-])c3C(=O)N12.[Na+] [Compound 1.1.20, Sodium (3S,11aR)-8-({[(2,6-difluoropyridin-3-yl)methyl]amino}carbonyl)-3-methyl-5,7-dioxo-2,3,5,7,11,11a-hexahydro[1,3]oxazolo[3,2-a]pyrido[1,2-d]pyrazin-6-olate]		1680 µg/mL		2679 µg/mL	2680 µg/mL		8.32	
C[C@H]1CO[C@@H]2Cn3cc(C(=O)NCc4ncccc4F)c(=O)c(O)c3C(=O)N12 [Compound 1.1.16, (3S,11aR)-6-hydroxy-3-methyl-N-[(3-fluoropyridin-2-yl)methyl]-5,7-dioxo-2,3,5,7,11,11a-hexahydro[1,3]oxazolo[3,2-a]pyrido[1,2-d]pyrazine-8-carboxamide]	7.52 to 8.00							7.98
C[C@H]1CO[C@@H]2Cn3cc(C(=O)NCc4nccc5ccccc45)c(=O)c(O)c3C(=O)N12 [Compound 1.1.55, (3S,11aR)-6-hydroxy-N-(isoquinolin-1-ylmethyl)-3-methyl-5,7-dioxo-2,3,5,7,11,11a-hexahydro[1,3]oxazolo[3,2-a]pyrido[1,2-d]pyrazine-8-carboxamide]	8.00 to 8.70							7.84
C[C@H]1CO[C@@H]2Cn3cc(C(=O)NCc4cccs4)c(=O)c(O)c3C(=O)N12 [Compound 1.1.1, (3S,11aR)-6-hydroxy-3-methyl-5,7-dioxo-N-(2-thienylmethyl)-2,3,5,7,11,11a-hexahydro[1,3]oxazolo[3,2-a]pyrido[1,2-d]pyrazine-8-carboxamide]	8.84	24 µg/mL (≈ 63.9 µM)	33 µg/mL (≈ 87.9 µM)					
C[C@H]1CO[C@@H]2Cn3cc(C(=O)NCc4nc5ccccc5s4)c(=O)c(O)c3C(=O)N12 [Compound 1.1.37, (3S,11aR)-N-(1,3-benzothiazol-2-ylmethyl)-6-hydroxy-3-methyl-5,7-dioxo-2,3,5,7,11,11a-hexahydro[1,3]oxazolo[3,2-a]pyrido[1,2-d]pyrazine-8-carboxamide]	8.71	21 µg/mL (≈ 49.2 µM)	21 µg/mL (≈ 49.2 µM)					
C[C@H]1CO[C@@H]2Cn3cc(C(=O)NCc4cccc5cccnc45)c(=O)c(O)c3C(=O)N12 [Compound 1.1.54, (3S,11aR)-6-hydroxy-3-methyl-N-(quinolin-8-ylmethyl)-5,7-dioxo-2,3,5,7,11,11a-hexahydro[1,3]oxazolo[3,2-a]pyrido[1,2-d]pyrazine-8-carboxamide]	8.66	6 µg/mL (≈ 14.3 µM)	10 µg/mL (≈ 23.8 µM)					
